Data taken from EP0358177A1, “Medicine with a synergistic antimycosic and antiviral activity” (HOECHST AKTIENGESELLSCHAFT, priority 1988, dated 1990).
≈ marks a conversion by molar mass, not a printed value. Read-outs that look alike come from different tables or passages of the source.

Columns and labels:
Format in all cases: cell-based
[1] = system: C. albicans; assay: Minimal inhibitory concentration (MHK), microdilution test in Neopepton Dextrose Bouillon; settings: Candida albicans, read-out: MHK
Description: (§1) Die minimale Hemmkonzentration (MHK), das heißt, diejenige Konzentration bei der das Wachstum der Pilze noch makroskopisch sichtbar gehemmt ist, wurde im Mitrkoverdünnungstest (Mikrodilutiontest in Neopepton Dextrose Boullion, siehe: "Comparison of two different techniques in primary micrological screening": Standard serial dilution test and microtitration test; W. Raether, M. Uphoff und G. Staut, mycosen, 27 (1984), p. 15 - 28) geprüft. Das Inokulum pro Weil betrug bei Candida albicans 10^3 cfu/ml und bei Microsporum canis 1,6 10^5 cfu/ml (cfu = colony forming units).
(§2) Zunächst wurde die minimale Hemmkonzentration eines jeden Kombinationspartners (Ciclopiroxolamin bzw. Nigericin oder Nigericinderivat) allein festgestellt (Cyclopyoxolamin: 2 u.g/ml; Nigericin und alle Nigericinderivate: >128 u.g/ml). Anschließend wurde die MHK für Ciclopiroxolamin in Anwesenheit von jeweils 64 µg/ml, 16 u.g/ml und 1 µg/ml eines Nigericinderivats geprüft, um festzustellen inwieweit der Zusatz des Nigericinderivats die Wirkung von Ciclopiroxolamin verstärken konnte.

[2] = system: M. canis; assay: as above; settings: Microsporum canis, read-out: MHK
Description: as §1, §2

[3] = system: Microsporum Canis und Candida albicans; assay: Minimal inhibitory concentration (MHK), microdilution test, text statements not separated by test strain; settings: each combination partner alone; test strain not specified; read-out: minimale Hemmkonzentration eines jeden Kombinationspartners allein
Description: as §1, §2

For `COC1CC(CC2CCC(C)C(C(C)C(=O)O)O2)OC2(OC(C)(C3CCC(C)(C4OC(C5OC(O)(COC(=O)CCC(=O)O)C(C)CC5C)CC4C)O3)CC2C)C1C` (stereo not shown) [Beispiel 17], the MIC [1] was 128 µg/mL (≈ 155 µM) and the MIC [2] was 128 µg/mL (≈ 155 µM).

Work on `COC1CC(CC2CCC(C)C(C(C)C(=O)O)O2)OC2(OC(C)(C3CCC(C)(C4OC(C5OC(O)(COC(=O)c6ccccc6)C(C)CC5C)CC4C)O3)CC2C)C1C` (stereo not shown) [Beispiel 18] yielded an MIC [1] of 128 µg/mL (≈ 154 µM) and an MIC [2] of 128 µg/mL (≈ 154 µM).

`COC1CC(CC2CCC(C)C(C(C)C(=O)O)O2)OC2(OC(C)(C3CCC(C)(C4OC(C5OC(O)(COC(=O)Cc6ccccc6)C(C)CC5C)CC4C)O3)CC2C)C1C` (stereo not shown) [Beispiel 19] gave an MIC ([1]; C. albicans, substance alone) of 128 µg/mL (≈ 152 µM) and an MIC ([2]; M. canis, substance alone) of 128 µg/mL (≈ 152 µM).

`COC1CC(CC2CCC(C)C(C(C)C(=O)O)O2)OC2(OC(C)(C3CCC(C)(C4OC(C5OC(O)(COC(=O)CCOc6ccccc6)C(C)CC5C)CC4C)O3)CC2C)C1C` (stereo not shown) [Beispiel 20] gave an MIC [1] of 128 µg/mL (≈ 147 µM) and an MIC [2] of 128 µg/mL (≈ 147 µM).

With `Cc1cc(C2CCCCC2)n(O)c(=O)c1` [Ciclopiroxolamin, Ethanolamin des 6-Cyclohexyl-1-Hydroxy-4-methyl-2(1H)-Pyridons, reference compound] the MIC ([1]; C. albicans, substance alone) was 2 µg/mL (≈ 9.65 µM), the MIC ([2]; M. canis, substance alone) was 2 µg/mL (≈ 9.65 µM) and the MIC [3] was 2 µg/mL.

For `CO[C@@H]1C[C@@H](C[C@H]2CC[C@H](C)[C@H]([C@@H](C)C(=O)O)O2)O[C@]2(O[C@](C)([C@H]3CC[C@@](C)([C@@H]4O[C@@H]([C@H]5O[C@@](O)(CO)[C@H](C)C[C@@H]5C)C[C@@H]4C)O3)C[C@H]2C)[C@@H]1C` [Nigericin, reference compound], the MIC ([1]; C. albicans, substance alone) was 128 µg/mL (≈ 177 µM) and the MIC ([2]; M. canis, substance alone) was 128 µg/mL (≈ 177 µM).
